The values below come from US20230406856A1, “SUBSTITUTED PYRROLO [2, 3-b] PYRIDINE AND PYRAZOLO [3, 4-b] PYRIDINE DERIVATIVES AS PROTEIN KINASE INHIBITORS” (Fochon Biosciences, Ltd., priority 2020, published 2023).

One data set has as its system DOHH2 cells. Put plainly: Cell proliferation assay in DOHH2 cells (MTS). In kind it is cell-based. Particulars: Homo sapiens, DOHH-2, inhibition of DOHH2 cell proliferation, 120 h incubation. On the procedure:
To investigate whether a compound is able to inhibit the activity of BTK in cells, a mechanism-based assay using DOHH2 (DSMZ catalog #: ACC47) cell was developed. In this assay, inhibition of BTK was detected by the inhibition of DOHH2 cells proliferation. Cells were collected and plated onto 96-well plates at the optimized cell density (5000 cells/well). Plates were incubated at 37° C., with 5% CO2 for 4h. Compounds were serially diluted and added to the plates with the final concentrations as 10000, 3333.3, 1111.1, 370.4, 123.5, 41.2, 13.7, 4.6 and 1.5 nM. Plates were incubated at 37° C., with 5% CO2 for 120 h. An aliquot of 20 μL MTS/100 μL medium mixture solution were added to each well and the plates were incubated for exactly 2 h. The reaction was stopped by adding 25 μL 10% SDS to each well. The absorbance was measured by a microplate reader at 490 nm and 650 nm (reference wavelength). IC50 was calculated using GraphPad Prism 5.0.

Data set [1] in a line: Pharmacokinetics in male Beagle dogs, single oral gavage. It counts as in vivo. On the procedure: The purpose of this study was to determine the pharmacokinetics of Example 1 in male Beagle dogs (Supplied by Marshall Bioresources, Beijing, China).
Animals were administered with Example 1 and Reference Compound 1 by single oral gavage (PO) administration at 3 mg/kg and 5 mg/kg, respectively, which was formulated in 10% DMSO (Sigma, Batch #STBJ2353): 60% PEG400 (PanReac AppliChem, Batch #1480132): 30% water at 5 mg/mL as a solution. Blood samples were collected at predose, 0.083, 0.25, 0.5, 1, 2, 4, 8, 12 and 24 hours post-dose. Concentrations of Example 1 and Reference Compound 1 in plasma were determined by LC/MS/MS (LC: Waters; MS: API4000).

Data set [2] in a line: Pharmacokinetics in male Sprague-Dawley rats, single oral gavage. It counts as in vivo. The conditions noted are these: 5 mg/kg; for AUC(0-t) / half-life: rat, plasma. The procedure: The purpose of this study was to determine the pharmacokinetics of Example 1 and Example 2 in male Sprague-Dawley rats (Supplied by Beijing Vital River Laboratory Animal Technology Co., Ltd.).
Animals were administered with Example 1 and Example 2 by single oral gavage (PO) administration at 5 mg/kg, respectively, which was formulated in 10% DMSO (Sigma, Batch #STBJ2353): 60% PEG400 (PanReac AppliChem, Batch #1480132): 30% water at 2 mg/mL as a solution. Blood samples were collected at predose, 0.083, 0.25, 0.5, 1, 2, 4, 8, 12 and 24 hours post-dose. Concentrations of Example 1 and Example 2 in plasma were determined by LC/MS/MS (LC: Waters UPLC; MS: API4000).

For a further data set, the target named is BTK (C481S) (Homo sapiens (Human), UniProt Q06187, C481S). Put plainly: Kinase assay of BTK (C481S), [33P]-ATP filter-binding, at Reaction Biology Corporation. The conditions noted are these: 10 μM ATP, 6 nM BTK (C481S), pEY substrate, 20 min pre-incubation, 120 min reaction. In kind it is biochemical. The procedure:
The kinase activity of BTK (C481S) was assayed at Reaction Biology Corporation. The substrate in the BTK (C481S) reaction, pEY (poly[Glu:Tyr] (4:1)) (Sigma, Cat. #P7244-250MG), was prepared in fresh reaction buffer (20 mM Hepes (pH 7.5), 10 mM MgCl2, 1 mM EGTA, 0.02% Brij35, 0.02 mg/ml BSA, 0.1 mM Na3VO4, 2 mM DTT, 1% DMSO). BTK(C481S) (SignalChem, Cat. #B10-12CH) was delivered into the substrate solution and mixed gently. The final concentrations of BTK (C481S) and the substrate in the reaction mixture were 6 nM and 0.2 mg/ml, respectively. Compounds were tested in 10-point concentration/response mode with 3-fold serial dilution steps starting at 1 μM.
Compounds in 100% DMSO were delivered into the kinase reaction mixture by acoustic liquid delivery technology (Echo550; nanoliter range) and incubated for 20 min at room temperature. 10 μM [^33P]-ATP (ATP: Sigma, Cat #: A7699; [^33P]-ATP: Hartmann Analytic, Cat #: SCF-301-12) was delivered into the reaction mixture to initiate the reaction. The mixture was incubated for 120 min at room temperature. Radioactivity was detected utilizing a proprietary filter-binding method. Kinase activity data were expressed as the percent remaining kinase activity in test samples compared to vehicle (DMSO) reactions. IC50 values were obtained using GraphPad Prism software.

The IC50 is the midpoint of a concentration-inhibition curve. For orientation: AUC(0-t) means exposure summed from dosing to a finite time, without extrapolation to infinity. High values mean high exposure, low ones low exposure. The half-life is the time needed for the level to fall by half in the phase considered. Read a low half-life as rapid decline.

Molecules are shown by their SMILES.

BTK (C481S), sequence (Q06187 whole entry C481S): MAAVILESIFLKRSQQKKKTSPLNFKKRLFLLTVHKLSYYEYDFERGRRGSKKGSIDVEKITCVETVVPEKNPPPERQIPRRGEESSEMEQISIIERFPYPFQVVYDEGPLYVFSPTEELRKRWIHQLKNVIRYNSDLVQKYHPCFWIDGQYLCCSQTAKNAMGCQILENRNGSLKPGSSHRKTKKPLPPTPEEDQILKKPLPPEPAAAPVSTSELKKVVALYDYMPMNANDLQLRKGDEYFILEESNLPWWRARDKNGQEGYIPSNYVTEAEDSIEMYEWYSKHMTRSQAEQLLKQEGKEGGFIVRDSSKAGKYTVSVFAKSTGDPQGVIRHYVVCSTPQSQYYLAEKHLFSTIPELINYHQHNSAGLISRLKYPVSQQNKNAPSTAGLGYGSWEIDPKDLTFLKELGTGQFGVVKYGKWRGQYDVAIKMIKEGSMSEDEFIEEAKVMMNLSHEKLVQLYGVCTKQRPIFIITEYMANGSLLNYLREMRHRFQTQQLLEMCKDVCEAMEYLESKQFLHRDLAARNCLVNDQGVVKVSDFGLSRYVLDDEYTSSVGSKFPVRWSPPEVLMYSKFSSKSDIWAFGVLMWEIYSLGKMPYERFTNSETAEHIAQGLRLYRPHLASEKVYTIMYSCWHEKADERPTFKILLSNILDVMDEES

As for `CS(=O)(=O)NC[C@@H]1CC[C@@H](Nc2c(F)cnc3[nH]cc(C(=O)c4ccc(Oc5c(F)cccc5F)cc4F)c23)CO1` [Example 1, N-(((2S,5R)-5-((3-(4-(2,6-difluorophenoxy)-2-fluorobenzoyl)-5-fluoro-1H-pyrrolo[2,3-b]pyridin-4-yl)amino)tetrahydro-2H-pyran-2-yl)methyl)methanesulfonamide], the IC50 with DOHH2 cells came out at 1 nM; on BTK (C481S), 1.5 nM. In addition, the F in data set [1] (3 mg/kg) came to 26.0%; in data set [2] it was 24.9%. Moreover, the AUC(0-t) in data set [1] (dog, 3 mg/kg, plasma) is 3820 ng·h/mL; in data set [2], 4950 ng·h/mL. Also, the half-life in data set [1] (dog, 3 mg/kg, plasma) was 15.6 h; in data set [2], 3.69 h.
`CS(=O)(=O)NC[C@@H]1CC[C@@H](Nc2c(F)cnc3[nH]cc(C(=O)c4ccc(Oc5ccccc5F)cc4F)c23)CO1` [Example 2, N-(((2S,5R)-5-((5-fluoro-3-(2-fluoro-4-(2-fluorophenoxy)benzoyl)-1H-pyrrolo[2,3-b]pyridin-4-yl)amino)tetrahydro-2H-pyran-2-yl)methyl)methanesulfonamide] yielded an IC50 with DOHH2 cells of 27 nM. In data set [2], this compound showed an F of 31%, an AUC(0-t) of 8340 ng·h/mL and a half-life of 3.08 h. The compound also showed a half-inhibitory concentration (IC50) at BTK (C481S) of 0.66 nM.
For the compound `CCS(=O)(=O)NC[C@@H]1CC[C@@H](Nc2c(F)cnc3[nH]cc(C(=O)c4ccc(Oc5ccccc5F)cc4F)c23)CO1` [Example 3, N-(((2S,5R)-5-((5-fluoro-3-(2-fluoro-4-(2-fluorophenoxy)benzoyl)-1H-pyrrolo[2,3-b]pyridin-4-yl)amino)tetrahydro-2H-pyran-2-yl)methyl)ethanesulfonamide], in the data set on DOHH2 cells, 1 nM corresponded to half-maximal inhibition (IC50).
In turn, `CCS(=O)(=O)NC[C@@H]1CC[C@@H](Nc2c(F)cnc3[nH]cc(C(=O)c4ccc(Oc5c(F)cccc5F)cc4F)c23)CO1` [Example 6, N-(((2S,5R)-5-((3-(4-(2,6-difluorophenoxy)-2-fluorobenzoyl)-5-fluoro-1H-pyrrolo[2,3-b]pyridin-4-yl)amino)tetrahydro-2H-pyran-2-yl)methyl)ethanesulfonamide] displayed an IC50 with DOHH2 cells of 1 nM. This counts as single-digit nanomolar.
For `O=C(c1ccc(Oc2c(F)cccc2F)cc1F)c1c[nH]c2ncc(F)c(N[C@@H]3CC[C@@H](CNS(=O)(=O)C4CC4)OC3)c12` [Example 8, N-(((2S,5R)-5-((3-(4-(2,6-difluorophenoxy)-2-fluorobenzoyl)-5-fluoro-1H-pyrrolo[2,3-b]pyridin-4-yl)amino)tetrahydro-2H-pyran-2-yl)methyl)cyclopropanesulfonamide], half-maximal inhibition in the data set on DOHH2 cells (IC50) was put at 1 nM.
For the compound `CCOc1cnc2[nH]cc(C(=O)c3ccc(Oc4ccccc4F)cc3F)c2c1N[C@@H]1CC[C@@H](CO)OC1` [Reference Compound 1, (5-ethoxy-4-(((3R,6S)-6-(hydroxymethyl)tetrahydro-2H-pyran-3-yl)amino)-JH-pyrrolo[2,3-b]pyridin-3-yl)(2-fluoro-4-(2-fluorophenoxy)phenyl)methanone, reference compound], in data set [1] (5 mg/kg), the F is reported as 9.82%. In data set [1] (5 mg/kg, plasma), this compound displayed an AUClast of 200 ng·h/mL and a T1/2 of 3.39 h.
